{
  "source": "patent US20100152225A1",
  "about": "“HYDROGENATED PYRIDO [4,3-B] INDOLES SUCH AS DIMEBON FOR TREATING CANINE COGNITIVE DYSFUNCTION SYNDROME” (priority 2006, published 2010)",
  "key": {"dogs": {"system": "dogs", "conditions": "dogs with CCDS; reported in FDA Consumer Magazine 2000; cited from earlier work"}, "Beagle Dogs [1]": {"system": "Beagle Dogs", "assay": "Curiosity Test (exploratory behavior, open-field arena)", "assay_type": "in vivo, Canine", "conditions": "for rearing frequency, controls versus dose group: FIG. 10", "protocol": "(§1) Dogs were weighed prior to study initiation. Capsules containing dimebon were prepared for each dog according to weight. The following doses of dimebon were used: 2, 6 and 20 mg/kg. Technicians not otherwise involved in the study prepared the capsules. During the control phase of the study, subjects were administered empty gelatine capsules. The test and control articles were administered to the dogs PO within meatballs of moist dog food once daily. Individual subjects were administered the capsule at the same time on each treatment day.\n(§2) The design of the study consisted of four 7 day test blocks (a test block refers to the 3 day washout period combined with the 4 day treatment/testing period). The first test block was a control and no subject received treatment during those seven days. Subsequently, the study then followed a Latin-square design, in which all of the subjects were tested at all the three dose levels of the test article in a different order (see Table 3 below). To accomplish this, the twelve subjects were divided into six groups of two subjects balanced for sex and age to the extent possible.\nAfter completing the control test block, each group received three doses of the test article in the order prescribed for that group. For each test block, subjects received their respective treatment for the first four days. On the fourth day of each test block, subjects were tested on the curiosity test twice; the first was one hour after article administration and the second was four hours after article administration. The remaining three days were considered washout days for each test block (Table 4).\nFor the curiosity test, each behavioral measure was analyzed individually using a repeated measures ANOVA with dose (control, 2, 6, and 20 mg/kg), test (first and second) as within-subject variables and order as a between-subject variable.\nThis is a test of exploratory behavior, which assesses both attention to environment and locomotor activity (Siwak et al. (2001) Effect of Age and Level of Cognitive Function on Spontaneous and Exploratory Behaviors in the Beagle Dog. Learning and Memory, 8:[…].). Subjects were placed in the open-field arena for a 10-minute period. Seven objects were placed in the arena and the subjects were permitted to freely explore the room and the objects.\nThe open field activity arena consisted of an empty test room (approximately 8′×10′) with strips of electrical tape applied to the floor in a grid pattern of rectangles to facilitate tracking. The floor of the test room was mopped prior to testing and between dogs to reduce olfactory cues from affecting testing. For tests conducted in the open field, the dogs were placed in the test room and their behavior was videotaped over a 10-minute period. On two of the test sessions, subjects were tested for 5 rather than 10 minutes. Accordingly, the data from those two dogs were not included in the initial analysis, which was carried out over all dose levels. However, all dogs were tested on the control and 20 mg/kg dose and a separate analysis was carried out comparing control and high dose treatments.\nThe movement pattern of the dog within the test room was recorded. In addition, keyboard keys were pressed to indicate the frequency of occurrence of the various behaviors including: sniffing, urinating, grooming, jumping, rearing, inactivity and vocalization. The software also provided a total measure of distance for loco-motor activity.\nIn addition to general activity, the interactions with the objects (picking-up, contacting, sniffing and urinating on the objects) were assessed and used as measures of exploratory behavior."}, "Beagle Dogs [2]": {"system": "Beagle Dogs", "assay": "Observation of abnormal behavioral responses / behavioral toxicity during study", "assay_type": "in vivo, Canine", "conditions": "2, 6 and 20 mg/kg", "source_text": "All dogs received veterinary examinations prior to initiation in the study. Over the course of the study, trained personnel recorded all adverse events and contacted the responsible veterinarian or study director when necessary.\nThe effect also appeared dependent on baseline activity level, the greater the baseline level the smaller the treatment effect."}, "Beagle Dogs [3]": {"system": "Beagle Dogs", "assay": "General Activity Test (Actiwatch post-dose activity)", "assay_type": "in vivo, Canine", "conditions": "for activity as a function of dose and treatment day: FIG. 2, suggestion of a drug effect", "protocol": "as §1, §2\nAt the start of the study, an Actiwatch collar was placed on each dog and the collar remained on for the study duration of the study. All behavioral testing followed previously established protocols. For behavioral tests conducted in the open field arena, data analyses were conducted using the DogAct behavioral software (CanCog Technologies Inc., Toronto, ON, Canada). Actiware-Rhythm® software was used to obtain activity counts for the day-night measure.\nThe Actiwatch data were analyzed to look at both changes in activity pattern temporally linked to treatment and changes in day/night activity.\n(§3) To assess changes in activity linked to the treatment condition, hourly activity over a five hour period after dosing was calculated. The data were then analyzed with a repeated measures analysis of variance (ANOVA), with time post dosing (1-5 hours), treatment days (1-4 for each condition) and dose (control, 2, 6, and 20 mg/kg) as within subject variables. Test order served as a between subject variable in the initial analysis. To examine day night-activity levels, day and night activity levels were calculated for each 24-hr period. The data were first analyzed with a repeated measures ANOVA, with dose (control, 2, 6, and 20 mg/kg), treatment day (1-4 for each condition), and phase (day and night) as within-subject variables. Once again order served as a between-subject variable.\n(§4) Post-dose activity patterns and twenty-four hour activity rhythms were assessed using the Actiwatch method, which detects alterations in activity and changes in phase of the activity cycle as described previously (Siwak et al. (2003) Circadian Activity Rhythms in Dogs Vary with Age and Cognitive Status. Behavioral Neuroscience, 111:813-824). Briefly, general activity patterns were monitored for 28 continuous days using the Mini-Mitter® Actiwatch-16® activity monitoring system (Mini-Mitter Co., Inc., Bend, Oreg.) adapted for dogs. The Actiwatch contained an activity sensory that was programmed to provide counts of total activity at 5 minute intervals. Putting the Actiwatch on a dog's collar allowed for recording uninterrupted patterns of activity and rest.\nThe first analysis of the Actiwatch data was intended to provide an overall picture of the post-dosing effect of the compound on behavioral activity. Accordingly, data for the 5-hour period following dosing was first segregated into 5 one-hour blocks. Thus, each subject's data for each treatment day consisted of 5 consecutive one-hour activity scores. The data were then analyzed with a repeated measures analysis of variance, with time post dosing (1-5 hours), treatment days (1-4 for each condition) and dose (control, 2, 6, and 20 mg/kg) as within subject variables. Test order served as between subject variables in the initial analysis. […]"}, "Beagle Dogs [4]": {"system": "Beagle Dogs", "assay": "Day Night Activity (Actiwatch day-night activity rhythms)", "assay_type": "in vivo, Canine", "protocol": "as §1, §2\nAt the start of the study, an Actiwatch collar was placed on each dog and the collar remained on for the study duration of the study. All behavioral testing followed previously established protocols. […]\nas §3, with “Test order served as a between subject variable in the initial analysis.” left out, “Once again order served as a between-subject variable.” left out\nas §4, with “The Actiwatch contained an activity sensory that was programmed to provide counts of total activity at 5 minute intervals. Putting the Actiwatch on a dog's collar allowed for recording uninterrupted patterns of activity and rest.” left out\nThe day/night activity data were analyzed with a repeated-measures ANOVA, with dose, wash-in day, and phase as within-subject variables and test order as a between-subject variable."}, "[5]": {"conditions": "2, 6 and 20 mg/kg, dihydrochloride"}},
  "note": "“Also recorded” adds a separate entry of the source.",
  "data": [
    {"smiles": "C#CCN(C)[C@H](C)Cc1ccccc1", "note": "[Anipryl®]", "values": [
      {"measurement": "fraction of cases in which it does not work", "setting": "dogs", "value": "about ⅓"}
    ]},
    {"smiles": "Cc1ccc2c(c1)c1c(n2CCc2ccc(C)nc2)CCN(C)C1.Cl.Cl", "note": "[dimebon, 2,8-dimethyl-5-(2-(6-methyl-3-pyridyl)-ethyl)-2,3,4,5-tetrahydro-1H-pyrido(4,3-b)indole dihydrochloride]", "values": [
      {"measurement": "change of rearing frequency over the two tests", "setting": "Beagle Dogs [1]; 2 mg/kg", "value": "decrease in rearing frequency"},
      {"measurement": "object sniff frequency compared to control", "setting": "Beagle Dogs [1]; 2 mg/kg, p=0.085660, FIG. 14", "value": "lower occurrence of object sniffing"},
      {"measurement": "change of rearing frequency over the two tests", "setting": "Beagle Dogs [1]; 6 mg/kg", "value": "rearing frequency increased over the two tests"},
      {"measurement": "change of rearing frequency over the two tests", "setting": "Beagle Dogs [1]; 20 mg/kg", "value": "rearing frequency increased over the two tests"},
      {"measurement": "exploratory behavior", "setting": "Beagle Dogs [1]; 20 mg/kg", "value": "increase in exploratory behavior"},
      {"measurement": "frequency of object pickup", "setting": "Beagle Dogs [1]; 20 mg/kg compared to 2 mg/kg, p=0.10445, FIG. 12", "value": "greater frequency of picking up objects"},
      {"measurement": "locomotor activity on the second curiosity test", "setting": "Beagle Dogs [1]; 20 mg/kg, 4 h after administration", "value": "increased locomotor activity"},
      {"measurement": "object contact duration compared to controls", "setting": "Beagle Dogs [1]; 20 mg/kg, especially on the second test, FIG. 13", "value": "increased contact"},
      {"measurement": "duration of action", "setting": "Beagle Dogs [1]; 20 mg/kg, manifested by locomotor activity on second curiosity test and night time activity", "value": "longest duration of action"},
      {"measurement": "change of inactivity over the two tests", "setting": "Beagle Dogs [1]; 20 mg/kg, secondary analysis control vs high dose, interaction p=0.098076, FIG. 11", "value": "decreased over the two tests"},
      {"measurement": "change of object sniff frequency over the two tests", "setting": "Beagle Dogs [1]; 20 mg/kg, secondary analysis, interaction p=0.061260, FIG. 16", "value": "object sniff frequency increased over the two tests"},
      {"measurement": "locomotor activity on first and second test", "setting": "Beagle Dogs [1]; 20 mg/kg, tests 1 h and 4 h after administration, FIG. 8", "value": "activity was increased on both tests"},
      {"measurement": "effect on most behaviors in the exploratory behavior test", "setting": "Beagle Dogs [1]; 2, 6 and 20 mg/kg", "value": "did not significantly affect most behaviors"},
      {"measurement": "exploration (summary of exploratory behavior test)", "setting": "Beagle Dogs [1]; [5]", "value": "generally increased; also recorded: dose-dependent trend towards increased exploration"},
      {"measurement": "rearing frequency, dose effect, secondary analysis", "setting": "Beagle Dogs [1]; control vs 20 mg/kg only, p=0.086315", "value": "marginally significant effect of dose"},
      {"measurement": "locomotor activity, dose effect (ANOVA)", "setting": "Beagle Dogs [1]; control, 2, 6, 20 mg/kg", "value": "not significant"},
      {"measurement": "urination frequency, effect of treatment", "setting": "Beagle Dogs [1]; control, 2, 6, 20 mg/kg, FIG. 9", "value": "no effects of treatment were found"},
      {"measurement": "rearing frequency, dose effect (ANOVA)", "setting": "Beagle Dogs [1]; control, 2, 6, 20 mg/kg, p=0.000846", "value": "significant dose effect"},
      {"measurement": "object contact duration, dose effect (ANOVA)", "setting": "Beagle Dogs [1]; control, 2, 6, 20 mg/kg, p=0.001384", "value": "significant dose effect"},
      {"measurement": "object sniff frequency, dose effect (ANOVA)", "setting": "Beagle Dogs [1]; control, 2, 6, 20 mg/kg, p=0.056856", "value": "marginally significant effect of dose"},
      {"measurement": "object pick-up, dose effect (ANOVA)", "setting": "Beagle Dogs [1]; control, 2, 6, 20 mg/kg, p=0.079968", "value": "marginally significant effect of dose"},
      {"measurement": "rearing frequency, controls versus dose group", "setting": "Beagle Dogs [1]; high dose group, p=0.025826", "value": "controls showing significantly less rearing"},
      {"measurement": "rearing frequency, controls versus dose group", "setting": "Beagle Dogs [1]; low dose group, p=0.0258", "value": "controls showing significantly less rearing"},
      {"measurement": "behavioral toxicity", "setting": "Beagle Dogs [2]", "value": "nor were there other indications of behavioral toxicity"},
      {"measurement": "stereotypical behavior", "setting": "Beagle Dogs [2]", "value": "None of the dogs showed any stereotypical behavior"},
      {"measurement": "abnormal behavioral response", "setting": "Beagle Dogs [2]; dihydrochloride", "value": "None of these results, however, is indicative of an abnormal behavioral response; also recorded: does not cause any obvious abnormal behavioral responses"},
      {"measurement": "activity at 5 hours post-dosing compared to control", "setting": "Beagle Dogs [3]; 6 mg/kg PO once daily, FIG. 1", "value": "generally higher"},
      {"measurement": "activity as a function of dose and treatment day", "setting": "Beagle Dogs [3]; 6 mg/kg", "value": "increased activity"},
      {"measurement": "activity at 5 hours post-dosing compared to control", "setting": "Beagle Dogs [3]; 20 mg/kg PO once daily, FIG. 1", "value": "generally higher"},
      {"measurement": "activity as a function of dose and treatment day", "setting": "Beagle Dogs [3]; 20 mg/kg", "value": "increased activity"},
      {"measurement": "behavioral activity (summary)", "setting": "Beagle Dogs [3]; [5]", "value": "trend towards an increase in activity with an increase in dosage; also recorded: moderate increase in behavioral activity"},
      {"measurement": "total activity as a function of dose", "setting": "Beagle Dogs [3]; control, 2, 6, 20 mg/kg, FIG. 3, not statistically significant, p=0.192360", "value": "dose-dependent increase in activity"},
      {"measurement": "decrease of activity with time following treatment", "setting": "Beagle Dogs [3]; two highest dose levels, FIG. 1", "value": "the decrease is smaller"},
      {"measurement": "ratio of day time activity to night time activity", "setting": "Beagle Dogs [4]; 2 mg/kg, FIG. 6, did not achieve statistical significance", "value": "highest"},
      {"measurement": "day:night activity ratio", "setting": "Beagle Dogs [4]; 20 mg/kg", "value": "not altered"},
      {"measurement": "night time activity", "setting": "Beagle Dogs [4]; 20 mg/kg", "value": "increased night time activity"},
      {"measurement": "day/night activity as a function of dose", "setting": "Beagle Dogs [4]; control, 2, 6, 20 mg/kg, did not achieve statistical significance, p=0.158556", "value": "overall dose-dependent increase in activity"}
    ]}
  ]
}
